Test results reported in US20240415914A1, “Water Dispersible Cannabinoid Compositions” (priority 2021, published 2024).
Where two headings read alike, the source gives them in different places.

How the values were obtained:
[1] = assay type: physicochemical; details: stored at room temperature (21-25° C.)
Description: At each time period, 0.05 g of powder was dissolved in 10 ml-15 of ethanol, diluted to fall within the analytical range, and injected into the LCMSMS for analysis.

[2] = Stability of cannabinoid and Vitamin E components of Beverage 2 (AB Red) stored at 8° C. and 21-25° C., LCMSMS over 570 days

In the case of CCCCCc1cc(O)c2c(c1)OC(C)(CCC=C(C)C)C=C2 (stereo not shown) [CBC, cannabichromene], the “Stability in Powder Concentrate (content by LCMSMS)” value (from here on “Stability in Powder Concentrate”) ([1]; day 0) is reported as 0.070 mg/g powder, the “Stability in Powder Concentrate” value ([1]; day 1) is reported as 0.072 mg/g powder and the “Stability in Powder Concentrate” value ([1]; day 2) is reported as 0.071 mg/g powder. The “Stability in Powder Concentrate” value ([1]; day 3) was 0.073 mg/g powder, the “Stability in Powder Concentrate” value ([1]; day 5) was 0.070 mg/g powder and the “Stability in Powder Concentrate” value ([1]; day 8) was 0.071 mg/g powder. For the same compound, the “Stability in Powder Concentrate” value ([1]; day 9) was 0.068 mg/g powder, the “Stability in Powder Concentrate” value ([1]; day 10) was 0.071 mg/g powder and the “Stability in Powder Concentrate” value ([1]; day 11) was 0.071 mg/g powder. The “Stability in Powder Concentrate” value ([1]; day 12) was 0.069 mg/g powder, the “Stability in Powder Concentrate” value ([1]; day 15) was 0.073 mg/g powder and the “Stability in Powder Concentrate” value ([1]; day 16) was 0.073 mg/g powder. For the same compound, the “Stability in Powder Concentrate” value ([1]; day 17) was 0.070 mg/g powder, the “Stability in Powder Concentrate” value ([1]; day 18) was 0.072 mg/g powder and the “Stability in Powder Concentrate” value ([1]; day 19) was 0.070 mg/g powder. The “Stability in Powder Concentrate” value ([1]; day 22) was 0.071 mg/g powder, the “Stability in Powder Concentrate” value ([1]; day 23) was 0.069 mg/g powder and the “Stability in Powder Concentrate” value ([1]; day 24) was 0.068 mg/g powder. For the same compound, the “Stability in Powder Concentrate” value ([1]; day 25) was 0.072 mg/g powder, the “Stability in Powder Concentrate” value ([1]; day 26) was 0.071 mg/g powder and the “Stability in Powder Concentrate” value ([1]; day 29) was 0.069 mg/g powder. The “Stability in Powder Concentrate” value ([1]; day 30) was 0.072 mg/g powder, the “Stability in Powder Concentrate” value ([1]; day 60) was 0.068 mg/g powder and the “Stability in Powder Concentrate” value ([1]; day 90) was 0.068 mg/g powder. For the same compound, the “Stability in Powder Concentrate” value ([1]; day 120) was 0.072 mg/g powder, the “Stability in Powder Concentrate” value ([1]; day 150) was 0.072 mg/g powder and the “Stability in Powder Concentrate” value ([1]; day 180) was 0.071 mg/g powder. The “Stability in Powder Concentrate” value ([1]; day 210) was 0.072 mg/g powder, the “Stability in Powder Concentrate” value ([1]; day 240) was 0.068 mg/g powder and the “Stability in Powder Concentrate” value ([1]; day 270) was 0.072 mg/g powder. For the same compound, the “Stability in Powder Concentrate” value ([1]; day 300) was 0.071 mg/g powder, the “Stability in Powder Concentrate” value ([1]; day 330) was 0.069 mg/g powder and the “Stability in Powder Concentrate” value ([1]; day 360) was 0.068 mg/g powder. For the same compound, the “Stability in Powder Concentrate” value ([1]; day 390) was 0.068 mg/g powder, the “Stability in Powder Concentrate” value ([1]; day 420) was 0.069 mg/g powder and the “Stability in Powder Concentrate” value ([1]; day 450) was 0.073 mg/g powder. For the same compound, the “Stability in Powder Concentrate” value ([1]; day 480) was 0.071 mg/g powder, the “Stability in Powder Concentrate” value ([1]; day 510) was 0.069 mg/g powder and the “Stability in Powder Concentrate” value ([1]; day 540) was 0.070 mg/g powder. For the same compound, the “Stability in Powder Concentrate” value ([1]; day 570) was 0.069 mg/g powder, the “Stability of Cannabinoids in AB Red” value ([2]; 8° C., 0 days) was 0.290 µg/mL and the “Stability of Cannabinoids in AB Red” value ([2]; 8° C., 1 days) was 0.289 µg/mL. For the same compound, the “Stability of Cannabinoids in AB Red” value ([2]; 8° C., 2 days) was 0.292 µg/mL, the “Stability of Cannabinoids in AB Red” value ([2]; 8° C., 3 days) was 0.285 µg/mL and the “Stability of Cannabinoids in AB Red” value ([2]; 8° C., 5 days) was 0.286 µg/mL. For the same compound, the “Stability of Cannabinoids in AB Red” value ([2]; 8° C., 8 days) was 0.286 µg/mL, the “Stability of Cannabinoids in AB Red” value ([2]; 8° C., 9 days) was 0.288 µg/mL and the “Stability of Cannabinoids in AB Red” value ([2]; 8° C., 10 days) was 0.288 µg/mL. For the same compound, the “Stability of Cannabinoids in AB Red” value ([2]; 8° C., 11 days) was 0.284 µg/mL, the “Stability of Cannabinoids in AB Red” value ([2]; 8° C., 12 days) was 0.285 µg/mL and the “Stability of Cannabinoids in AB Red” value ([2]; 8° C., 15 days) was 0.292 µg/mL. For the same compound, the “Stability of Cannabinoids in AB Red” value ([2]; 8° C., 16 days) was 0.283 µg/mL, the “Stability of Cannabinoids in AB Red” value ([2]; 8° C., 17 days) was 0.282 µg/mL and the “Stability of Cannabinoids in AB Red” value ([2]; 8° C., 18 days) was 0.289 µg/mL. For the same compound, the “Stability of Cannabinoids in AB Red” value ([2]; 8° C., 19 days) was 0.287 µg/mL, the “Stability of Cannabinoids in AB Red” value ([2]; 8° C., 22 days) was 0.287 µg/mL and the “Stability of Cannabinoids in AB Red” value ([2]; 8° C., 23 days) was 0.287 µg/mL. The “Stability of Cannabinoids in AB Red” value ([2]; 8° C., 24 days) was 0.291 µg/mL, the “Stability of Cannabinoids in AB Red” value ([2]; 8° C., 25 days) was 0.287 µg/mL and the “Stability of Cannabinoids in AB Red” value ([2]; 8° C., 26 days) was 0.287 µg/mL. For the same compound, the “Stability of Cannabinoids in AB Red” value ([2]; 8° C., 29 days) was 0.284 µg/mL, the “Stability of Cannabinoids in AB Red” value ([2]; 8° C., 30 days) was 0.282 µg/mL and the “Stability of Cannabinoids in AB Red” value ([2]; 8° C., 60 days) was 0.278 µg/mL. The “Stability of Cannabinoids in AB Red” value ([2]; 8° C., 90 days) was 0.287 µg/mL, the “Stability of Cannabinoids in AB Red” value ([2]; 8° C., 120 days) was 0.289 µg/mL and the “Stability of Cannabinoids in AB Red” value ([2]; 8° C., 150 days) was 0.281 µg/mL. For the same compound, the “Stability of Cannabinoids in AB Red” value ([2]; 8° C., 180 days) was 0.285 µg/mL, the “Stability of Cannabinoids in AB Red” value ([2]; 8° C., 210 days) was 0.282 µg/mL and the “Stability of Cannabinoids in AB Red” value ([2]; 8° C., 240 days) was 0.280 µg/mL. The “Stability of Cannabinoids in AB Red” value ([2]; 8° C., 270 days) was 0.284 µg/mL, the “Stability of Cannabinoids in AB Red” value ([2]; 8° C., 300 days) was 0.280 µg/mL and the “Stability of Cannabinoids in AB Red” value ([2]; 8° C., 330 days) was 0.278 µg/mL. For the same compound, the “Stability of Cannabinoids in AB Red” value ([2]; 8° C., 390 days) was 0.282 µg/mL, the “Stability of Cannabinoids in AB Red” value ([2]; 8° C., 420 days) was 0.277 µg/mL and the “Stability of Cannabinoids in AB Red” value ([2]; 8° C., 450 days) was 0.282 µg/mL. For the same compound, the “Stability of Cannabinoids in AB Red” value ([2]; 8° C., 480 days) was 0.274 µg/mL, the “Stability of Cannabinoids in AB Red” value ([2]; 8° C., 510 days) was 0.267 µg/mL and the “Stability of Cannabinoids in AB Red” value ([2]; 8° C., 540 days) was 0.271 µg/mL. The “Stability of Cannabinoids in AB Red” value ([2]; 8° C., 570 days) was 0.266 µg/mL, the “Stability of Cannabinoids in AB Red” value ([2]; 21-25° C., 0 days) was 0.29 µg/mL and the “Stability of Cannabinoids in AB Red” value ([2]; 21-25° C., 1 days) was 0.28 µg/mL. For the same compound, the “Stability of Cannabinoids in AB Red” value ([2]; 21-25° C., 2 days) was 0.28 µg/mL, the “Stability of Cannabinoids in AB Red” value ([2]; 21-25° C., 3 days) was 0.29 µg/mL and the “Stability of Cannabinoids in AB Red” value ([2]; 21-25° C., 5 days) was 0.28 µg/mL. The “Stability of Cannabinoids in AB Red” value ([2]; 21-25° C., 8 days) was 0.28 µg/mL, the “Stability of Cannabinoids in AB Red” value ([2]; 21-25° C., 9 days) was 0.28 µg/mL and the “Stability of Cannabinoids in AB Red” value ([2]; 21-25° C., 10 days) was 0.29 µg/mL. For the same compound, the “Stability of Cannabinoids in AB Red” value ([2]; 21-25° C., 11 days) was 0.29 µg/mL, the “Stability of Cannabinoids in AB Red” value ([2]; 21-25° C., 12 days) was 0.28 µg/mL and the “Stability of Cannabinoids in AB Red” value ([2]; 21-25° C., 15 days) was 0.28 µg/mL. For the same compound, the “Stability of Cannabinoids in AB Red” value ([2]; 21-25° C., 16 days) was 0.28 µg/mL, the “Stability of Cannabinoids in AB Red” value ([2]; 21-25° C., 17 days) was 0.28 µg/mL and the “Stability of Cannabinoids in AB Red” value ([2]; 21-25° C., 18 days) was 0.29 µg/mL. The “Stability of Cannabinoids in AB Red” value ([2]; 21-25° C., 19 days) was 0.29 µg/mL, the “Stability of Cannabinoids in AB Red” value ([2]; 21-25° C., 22 days) was 0.29 µg/mL and the “Stability of Cannabinoids in AB Red” value ([2]; 21-25° C., 23 days) was 0.28 µg/mL. For the same compound, the “Stability of Cannabinoids in AB Red” value ([2]; 21-25° C., 24 days) was 0.29 µg/mL, the “Stability of Cannabinoids in AB Red” value ([2]; 21-25° C., 25 days) was 0.28 µg/mL and the “Stability of Cannabinoids in AB Red” value ([2]; 21-25° C., 26 days) was 0.28 µg/mL. For the same compound, the “Stability of Cannabinoids in AB Red” value ([2]; 21-25° C., 29 days) was 0.29 µg/mL, the “Stability of Cannabinoids in AB Red” value ([2]; 21-25° C., 30 days) was 0.29 µg/mL and the “Stability of Cannabinoids in AB Red” value ([2]; 21-25° C., 60 days) was 0.29 µg/mL. The “Stability of Cannabinoids in AB Red” value ([2]; 21-25° C., 90 days) was 0.28 µg/mL, the “Stability of Cannabinoids in AB Red” value ([2]; 21-25° C., 120 days) was 0.29 µg/mL and the “Stability of Cannabinoids in AB Red” value ([2]; 21-25° C., 150 days) was 0.29 µg/mL. For the same compound, the “Stability of Cannabinoids in AB Red” value ([2]; 21-25° C., 180 days) was 0.28 µg/mL, the “Stability of Cannabinoids in AB Red” value ([2]; 21-25° C., 210 days) was 0.29 µg/mL and the “Stability of Cannabinoids in AB Red” value ([2]; 21-25° C., 240 days) was 0.28 µg/mL. For the same compound, the “Stability of Cannabinoids in AB Red” value ([2]; 21-25° C., 270 days) was 0.29 µg/mL, the “Stability of Cannabinoids in AB Red” value ([2]; 21-25° C., 300 days) was 0.29 µg/mL and the “Stability of Cannabinoids in AB Red” value ([2]; 21-25° C., 330 days) was 0.29 µg/mL. The “Stability of Cannabinoids in AB Red” value ([2]; 21-25° C., 390 days) was 0.28 µg/mL, the “Stability of Cannabinoids in AB Red” value ([2]; 21-25° C., 420 days) was 0.28 µg/mL and the “Stability of Cannabinoids in AB Red” value ([2]; 21-25° C., 450 days) was 0.28 µg/mL. For the same compound, the “Stability of Cannabinoids in AB Red” value ([2]; 21-25° C., 480 days) was 0.28 µg/mL, the “Stability of Cannabinoids in AB Red” value ([2]; 21-25° C., 510 days) was 0.27 µg/mL and the “Stability of Cannabinoids in AB Red” value ([2]; 21-25° C., 540 days) was 0.28 µg/mL. The “Stability of Cannabinoids in AB Red” value ([2]; 21-25° C., 570 days) was 0.27 µg/mL.
